# From patent publication US20210254056A1, “IDENTIFICATION AND TARGETED MODULATION OF GENE SIGNALING NETWORKS” (CAMP4 THERAPEUTICS CORPORATION, priority 2017, published 2021)
# System: hepatocytes
# Assay: RNA-seq of hepatocytes treated with Phase III failure compounds
# Method: RNA-seq was performed to determine the effects of the compounds on hepatocytes.
# Significance was determined by the criteria of FPKM≥0.5, a log 2(fold-change)≥1, and a […].
smiles,measurement,setting,value
COc1cc2nccc(Oc3ccc(NC(=O)Nc4cc(C)on4)c(Cl)c3)c2cc1OC [Tivozanib],"RNA-seq results, CYP2B6 expression",,0.16
same,"RNA-seq results, CYP2C19 expression",,−1.36
same,"RNA-seq results, CYP2D6 expression",,0.21
same,"RNA-seq results, CYP3A4 expression",,0.50
same,"RNA-seq results, CYP7B1 expression",,−1.02
same,"RNA-seq results, CYP39A1 expression",,0.94
same,RNA-seq results: CYP2B6 expression,,0.24
same,RNA-seq results: CYP2C19 expression,,0.27
same,RNA-seq results: CYP2D6 expression,,−0.3
same,RNA-seq results: CYP3A4 expression,,0.18
same,RNA-seq results: CYP7B1 expression,,−0.17
same,RNA-seq results: CYP39A1 expression,,0.06
same,significant modulation of expression of disease genes,"RNA-seq, q≤0.05, hepatocytes, genes in the value or listed in the block",significantly (q≤0.05) modulate expression
same,effect on disease gene expression,"RNA-seq, hepatocytes",effect on expression of too many disease genes
same,RNA-seq results: A1BG expression,"gene A1BG, hepatocytes",0.51
same,RNA-seq results: AGTR1 expression,"gene AGTR1, hepatocytes",−0.47
same,RNA-seq results: AGXT expression,"gene AGXT, hepatocytes",0.04
same,RNA-seq results: AHI1 expression,"gene AHI1, hepatocytes",0.24
same,RNA-seq results: AMPD3 expression,"gene AMPD3, hepatocytes",−0.18
same,RNA-seq results: AMT expression,"gene AMT, hepatocytes",0.50
same,RNA-seq results: ANGPTL3 expression,"gene ANGPTL3, hepatocytes",−1.56
same,RNA-seq results: ANKS4B expression,"gene ANKS4B, hepatocytes",−0.68
same,RNA-seq results: ANKS6 expression,"gene ANKS6, hepatocytes",−0.21
same,RNA-seq results: ANPEP expression,"gene ANPEP, hepatocytes",−1.04
same,RNA-seq results: AOC2 expression,"gene AOC2, hepatocytes",−0.20
same,RNA-seq results: APOA2 expression,"gene APOA2, hepatocytes",0.31
same,RNA-seq results: APOA5 expression,"gene APOA5, hepatocytes",−0.09
same,RNA-seq results: APOB expression,"gene APOB, hepatocytes",−0.40
same,RNA-seq results: COG5 expression,"gene COG5, hepatocytes",−0.02
same,RNA-seq results: COG6 expression,"gene COG6, hepatocytes",−0.09
same,RNA-seq results: COL1A1 expression,"gene COL1A1, hepatocytes",−0.35
same,RNA-seq results: COX6A1 expression,"gene COX6A1, hepatocytes",−0.05
same,RNA-seq results: CP expression,"gene CP, hepatocytes",0.36
same,RNA-seq results: CPS1 expression,"gene CPS1, hepatocytes",0.2
same,RNA-seq results: CPT1A expression,"gene CPT1A, hepatocytes",0.08
same,RNA-seq results: CPT2 expression,"gene CPT2, hepatocytes",0.07
same,RNA-seq results: CROT expression,"gene CROT, hepatocytes",−0.02
same,RNA-seq results: CSPP1 expression,"gene CSPP1, hepatocytes",0.35
same,RNA-seq results: CTC1 expression,"gene CTC1, hepatocytes",−0.04
same,RNA-seq results: CTDSP2 expression,"gene CTDSP2, hepatocytes",0
same,RNA-seq results: CTH expression,"gene CTH, hepatocytes",0.11
same,RNA-seq results: CTNS expression,"gene CTNS, hepatocytes",−0.16
same,RNA-seq results: CTSF expression,"gene CTSF, hepatocytes",−0.1
same,RNA-seq results: CTSK expression,"gene CTSK, hepatocytes",0.32
same,RNA-seq results: CYB5A expression,"gene CYB5A, hepatocytes",0.09
same,RNA-seq results: CYB5R3 expression,"gene CYB5R3, hepatocytes",−0.25
same,RNA-seq results: CYP27A1 expression,"gene CYP27A1, hepatocytes",0.02
same,RNA-seq results: DAO expression,"gene DAO, hepatocytes",0.02
same,RNA-seq results: DBT expression,"gene DBT, hepatocytes",0.18
same,RNA-seq results: DCDC2 expression,"gene DCDC2, hepatocytes",0.25
same,RNA-seq results: DCXR expression,"gene DCXR, hepatocytes",−0.35
same,RNA-seq results: FABP1 expression,"gene FABP1, hepatocytes",0.25
same,RNA-seq results: FADD expression,"gene FADD, hepatocytes",−0.32
same,RNA-seq results: FAM111A expression,"gene FAM111A, hepatocytes",0.18
same,RNA-seq results: FAM111B expression,"gene FAM111B, hepatocytes",0.01
same,RNA-seq results: FAN1 expression,"gene FAN1, hepatocytes",0.06
same,RNA-seq results: FARS2 expression,"gene FARS2, hepatocytes",−0.06
same,RNA-seq results: FASLG expression,"gene FASLG, hepatocytes",−0.16
same,RNA-seq results: FGA expression,"gene FGA, hepatocytes",0.15
same,RNA-seq results: FGD1 expression,"gene FGD1, hepatocytes",−0.42
same,RNA-seq results: FGFR2 expression,"gene FGFR2, hepatocytes",0.36
same,RNA-seq results: FIG4 expression,"gene FIG4, hepatocytes",0.29
same,RNA-seq results: FIS1 expression,"gene FIS1, hepatocytes",0.01
same,RNA-seq results: FTCD expression,"gene FTCD, hepatocytes",−0.28
same,RNA-seq results: FTH1 expression,"gene FTH1, hepatocytes",−0.33
same,RNA-seq results: FUCA1 expression,"gene FUCA1, hepatocytes",0.06
same,RNA-seq results: FXN expression,"gene FXN, hepatocytes",−0.37
same,RNA-seq results: G6PC3 expression,"gene G6PC3, hepatocytes",−0.21
same,RNA-seq results: G6PC expression,"gene G6PC, hepatocytes",−0.01
same,RNA-seq results: G6PD expression,"gene G6PD, hepatocytes",−0.09
same,RNA-seq results: GALK1 expression,"gene GALK1, hepatocytes",−0.45
same,RNA-seq results: GALK2 expression,"gene GALK2, hepatocytes",−0.06
same,RNA-seq results: GALT expression,"gene GALT, hepatocytes",0
same,RNA-seq results: GATA6 expression,"gene GATA6, hepatocytes",−0.71
same,RNA-seq results: GATM expression,"gene GATM, hepatocytes",−0.01
same,RNA-seq results: GBA expression,"gene GBA, hepatocytes",0.02
same,RNA-seq results: GBE1 expression,"gene GBE1, hepatocytes",−0.06
same,RNA-seq results: GCH1 expression,"gene GCH1, hepatocytes",−0.12
same,RNA-seq results: GCKR expression,"gene GCKR, hepatocytes",0.14
same,RNA-seq results: GCLC expression,"gene GCLC, hepatocytes",−0.06
same,RNA-seq results: GOSH expression,"gene GOSH, hepatocytes",−1.23
same,RNA-seq results: RRM2B,"gene RRM2B, hepatocytes",−0.32
same,RNA-seq results: RSAD1,"gene RSAD1, hepatocytes",0.01
same,RNA-seq results: SAMHD1,"gene SAMHD1, hepatocytes",−1.92
same,RNA-seq results: SC5D,"gene SC5D, hepatocytes",0.47
same,RNA-seq results: SCARB1,"gene SCARB1, hepatocytes",−0.67
same,RNA-seq results: SCN9A,"gene SCN9A, hepatocytes",−0.32
same,RNA-seq results: SDCCAG8,"gene SDCCAG8, hepatocytes",−0.50
same,RNA-seq results: SEPN1,"gene SEPN1, hepatocytes",−1.37
same,RNA-seq results: SERAC1,"gene SERAC1, hepatocytes",−0.31
same,RNA-seq results: SERPINA1,"gene SERPINA1, hepatocytes",0.12
same,RNA-seq results: SERPING1,"gene SERPING1, hepatocytes",0.14
same,RNA-seq results: SERPINI1,"gene SERPINI1, hepatocytes",−0.06
same,RNA-seq results: SETBP1,"gene SETBP1, hepatocytes",−0.38
same,RNA-seq results: SFXN4,"gene SFXN4, hepatocytes",0.25
same,RNA-seq results: SLC10A1,"gene SLC10A1, hepatocytes",−0.16
same,RNA-seq results: SLC10A3,"gene SLC10A3, hepatocytes",−0.82
same,RNA-seq results: SLC10A5,"gene SLC10A5, hepatocytes",−1.06
same,RNA-seq results: SLC10A7,"gene SLC10A7, hepatocytes",−0.12
same,RNA-seq results: SLC11A2,"gene SLC11A2, hepatocytes",−0.44
same,RNA-seq results: SLC19A1,"gene SLC19A1, hepatocytes",−0.33
same,RNA-seq results: SLC19A2,"gene SLC19A2, hepatocytes",−0.15
same,RNA-seq results: SLC19A3,"gene SLC19A3, hepatocytes",−0.16
same,RNA-seq results: SLC22A1,"gene SLC22A1, hepatocytes",0.24
same,RNA-seq results: SLC22A5,"gene SLC22A5, hepatocytes",−0.38
same,RNA-seq results: SLC25A1,"gene SLC25A1, hepatocytes",−0.61
same,RNA-seq results: SLC25A10,"gene SLC25A10, hepatocytes",−0.64
same,RNA-seq results: SLC25A12,"gene SLC25A12, hepatocytes",−0.97
same,RNA-seq results: SLC25A13,"gene SLC25A13, hepatocytes",−0.53
same,RNA-seq results: SLC25A15,"gene SLC25A15, hepatocytes",−0.18
same,RNA-seq results: SLC25A19,"gene SLC25A19, hepatocytes",−0.47
same,RNA-seq results: SLC25A20,"gene SLC25A20, hepatocytes",−1.32
same,RNA-seq results: SLC25A29,"gene SLC25A29, hepatocytes",−0.54
same,RNA-seq results: SLC25A32,"gene SLC25A32, hepatocytes",−0.47
C[C@H](Oc1ccc(S(C)(=O)=O)cc1C(=O)N1CCN(c2ncc(C(F)(F)F)cc2F)CC1)C(F)(F)F [Bitopertin],significant changes in gene expression,"RNA-seq of Table 36, FPKM≥0.5, log 2(fold-change)≥1, q-value≤0.05",not observed to cause any significant changes in gene expression
same,significant modulation of expression of any of the genes analyzed,"RNA-seq, p≤0.05, hepatocytes",not observed to significantly modulate expression
